Data on 29 compounds can be found in patent US20150353495A1 (PORTOLA PHARMACEUTICALS, INC., priority 2010, published 2015).

In general, pIC50 refers to the IC50 on a negative log10 scale, so that one unit is a factor of ten. A higher pIC50 goes with a low IC50.

pIC50: −log10 of the molar value. A value given as a limit tells only on which side of the number the result lay.

Assay type in all cases: biochemical
One experiment deals with T1, JAK1 (Homo sapiens, UniProt P23458).
T1 construct: 5 μl of catalytic domain recombinant Kinase enzyme+Tyr peptide substrate (Invitrogen, CA); purchased Invitrogen
T1 sequence (P23458 875-1153 limits assumed): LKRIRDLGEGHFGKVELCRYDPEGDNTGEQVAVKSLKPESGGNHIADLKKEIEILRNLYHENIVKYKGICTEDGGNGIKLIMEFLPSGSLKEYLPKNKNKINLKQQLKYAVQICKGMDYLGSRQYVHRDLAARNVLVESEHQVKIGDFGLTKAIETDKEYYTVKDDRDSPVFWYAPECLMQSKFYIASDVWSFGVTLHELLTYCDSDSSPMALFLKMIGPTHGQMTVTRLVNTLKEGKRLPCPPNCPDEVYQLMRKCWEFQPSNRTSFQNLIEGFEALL
The experiment can be described thus: Z'-LYTE kinase assay JAK1. In short, it runs like this: (§1)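 Read-out is FRET fluorescence between coumarin and fluorescein on a Tyr6 peptide, lost when the development protease cleaves unphosphorylated substrate. Kinase reaction used recombinant catalytic domain with ATP, 1 h at room temperature, 1% DMSO.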

The target of a further experiment is T2, JAK3 (Homo sapiens, UniProt P52333).
T2 construct: 5 μl of catalytic domain recombinant Kinase enzyme+Tyr peptide substrate (Invitrogen, CA); purchased Invitrogen
T2 sequence (P52333 822-1111 limits assumed): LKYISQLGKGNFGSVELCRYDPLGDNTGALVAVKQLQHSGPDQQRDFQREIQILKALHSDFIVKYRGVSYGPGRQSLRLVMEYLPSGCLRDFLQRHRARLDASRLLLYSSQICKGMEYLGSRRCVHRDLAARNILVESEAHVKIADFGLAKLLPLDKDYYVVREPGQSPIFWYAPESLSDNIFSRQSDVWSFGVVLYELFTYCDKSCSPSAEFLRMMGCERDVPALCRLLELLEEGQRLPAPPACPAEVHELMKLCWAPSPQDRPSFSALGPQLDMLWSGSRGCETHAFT
The experiment can be described thus: Z'-LYTE kinase assay JAK3. The gist of the method: as §1

Another experiment deals with T3, JAK2 (Homo sapiens, UniProt O60674).
T3 construct: 5 μl of catalytic domain recombinant Kinase enzyme+Tyr peptide substrate (Invitrogen, CA); purchased Invitrogen
T3 sequence (O60674 849-1124 limits assumed): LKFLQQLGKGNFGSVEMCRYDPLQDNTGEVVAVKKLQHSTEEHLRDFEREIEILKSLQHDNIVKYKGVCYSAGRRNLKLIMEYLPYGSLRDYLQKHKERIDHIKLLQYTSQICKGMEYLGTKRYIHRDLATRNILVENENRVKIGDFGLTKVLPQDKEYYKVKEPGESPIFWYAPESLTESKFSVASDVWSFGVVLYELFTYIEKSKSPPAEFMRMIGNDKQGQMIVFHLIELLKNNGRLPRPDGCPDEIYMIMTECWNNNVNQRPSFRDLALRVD
The experiment can be described thus: Z'-LYTE kinase assay JAK2. The gist of the method:
as §1

On to `CC(=O)N(C)c1ccc(Nc2cc(NC3(c4ccccc4)CC3)c(C(N)=O)cn2)cc1` [Example 361, 6-(4-(N-methylacetamido)phenylamino)-4-(1-phenylcyclopropylamino)nicotinamide], for which the pIC50 against JAK1 is below 6.00; against JAK3 it was 6.00 to 7.00; against JAK2, below 6.00.

Regarding `CN(C)C(=O)c1ccc(Nc2cc(NCc3ccccc3)c(C(=O)N(C)C)cn2)cc1` [Example 30, 4-(benzylamino)-6-(4-(dimethylcarbamoyl)phenylamino)-N,N-dimethylnicotinamide], the pIC50 at JAK1, on JAK3 and against JAK2 was below 6.00 throughout.

For the compound `COc1ccc(Nc2cc(NCc3cccc4c3ccn4C)c(C(N)=O)cn2)cc1` [Example 303, 6-(4-methoxyphenylamino)-4-((1-methyl-1H-indol-4-yl)methylamino)nicotinamide], the negative-log IC50 (pIC50) against JAK1 was below 6.00; against JAK3, 7.00 to 8.00; against JAK2 it was below 6.00.

`CC(=O)N1CCN(c2ccc(Nc3ncc(C(N)=O)c(NCc4cccc(F)c4)c3Cl)cc2)CC1` [Example 376]: the pIC50 is below 6.00 on JAK1, 6.00 to 7.00 on JAK3 and below 6.00 at JAK2.

Take `COc1ccc(Nc2cc(NCC3CCCC3)c(C(N)=O)cn2)cc1` [Example 32, 4-(cyclopentylmethylamino)-6-(4-methoxyphenylamino)nicotinamide]: the pIC50 on JAK1 is below 6.00; at JAK3, 6.00 to 7.00; against JAK2 it was below 6.00.

For the compound `CCC(=O)N1CCC(c2ccc(Nc3cc(NCc4cccc5[nH]ncc45)c(C(N)=O)cn3)cc2)CC1` [Example 210, 4-((1H-indazol-4-yl)methylamino)-6-(4-(1-propionylpiperidin-4-yl)phenylamino)nicotinamide], the pIC50 at JAK1 is 7.00 to 8.00; on JAK3 it was 8.00 to 9.00; at JAK2, 7.00 to 8.00.

In the case of `COc1ccc(Nc2cc(NC[C@H]3CCCN(C(=O)N4CCCC4)C3)c(C(N)=O)cn2)cc1` [Example 290, (R)-6-(4-methoxyphenylamino)-4-((1-(pyrrolidine-1-carbonyl)piperidin-3-yl)methylamino)nicotinamide], the pIC50 against JAK1 is below 6.00; against JAK3, 6.00 to 7.00; against JAK2 it was below 6.00.

For the compound `NC(=O)c1cnc(Nc2ccc(C3CCOCC3)cc2)cc1NC1CCOCC1` [Example 139, 6-(4-(tetrahydro-2H-pyran-4-yl)phenylamino)-4-(tetrahydro-2H-pyran-4-ylamino)nicotinamide], the pIC50 at JAK1 is below 6.00; at JAK3 it was 6.00 to 7.00; at JAK2, below 6.00.

Regarding `COC(=O)N1CC(c2ccc(Nc3cc(NCc4ccccc4)c(C(N)=O)cn3)cc2)C1` [Example 327, methyl 3-(4-(4-(benzylamino)-5-carbamoylpyridin-2-ylamino)phenyl)azetidine-1-carboxylate], the results for the pIC50 against JAK1, against JAK3 and against JAK2 were below 6.00, 7.00 to 8.00 and 6.00 to 7.00, respectively.

Consider `NC(=O)c1cnc(Nc2cccc(C(=O)N3CCC3)c2)cc1NCc1cc(F)ccc1F` [Example 99, 6-(3-(azetidine-1-carbonyl)phenylamino)-4-(2,5-difluorobenzylamino)nicotinamide], for which the pIC50 against JAK1 is 6.00 to 7.00; on JAK3, 8.00 to 9.00; against JAK2, 6.00 to 7.00.

Regarding `CCC(=O)N(C)c1ccc(Nc2cc(NCc3cccc4[nH]ccc34)c(C(N)=O)cn2)cc1` [Example 475, 4-((1H-indol-4-yl)methylamino)-6-(4-(N-methylpropionamido)phenylamino)nicotinamide], the pIC50 at JAK1 was 7.00 to 8.00; on JAK3 it was 8.00 to 9.00; against JAK2 it was 7.00 to 8.00.

For the compound `CC(=O)N1CCN(c2ccc(Nc3cc(N[C@H]4CC[C@@H](O)CC4)c(C(N)=O)cn3)cc2)CC1` [Example 123, 6-(4-(4-acetylpiperazin-1-yl)phenylamino)-4-((cis)-4-hydroxycyclohexylamino)nicotinamide], the pIC50 was 6.00 to 7.00 on JAK1, 7.00 to 8.00 at JAK3 and 6.00 to 7.00 against JAK2.

Take `CC(=O)N(C)c1ccc(Nc2cc(NCc3cncc(F)c3)c(C(N)=O)cn2)cc1` [Example 483, 4-((5-fluoropyridin-3-yl)methylamino)-6-(4-(N-methylacetamido)phenylamino)nicotinamide]: the figures for the negative-log IC50 (pIC50) against JAK1, on JAK3 and against JAK2 were below 6.00, 7.00 to 8.00 and 6.00 to 7.00, respectively.

In the case of `NC(=O)c1cnc(Nc2ccc(C3CCOCC3)cc2)cc1NCc1ccccc1F` [Example 142, 4-(2-fluorobenzylamino)-6-(4-(tetrahydro-2H-pyran-4-yl)phenylamino)nicotinamide], the negative-log IC50 (pIC50) was below 6.00 on JAK1, 7.00 to 8.00 against JAK3 and 6.00 to 7.00 against JAK2.

For the compound `COc1ccc(Nc2cc(N[C@@H]3CCCN(C(C)=O)C3)c(C(N)=O)cn2)cc1` [Example 37, (R)-4-(1-acetylpiperidin-3-ylamino)-6-(4-methoxyphenylamino)nicotinamide], the pIC50 on JAK1, against JAK3 and against JAK2 was below 6.00 in each case.

For `Cc1cc(Nc2cc(NCc3cccc4cc[nH]c34)c(C(N)=O)cn2)ccc1C(=O)N1CCC1` [Example 463, 4-((1H-indol-7-yl)methylamino)-6-(4-(azetidine-1-carbonyl)-3-methylphenylamino)nicotinamide], the negative-log IC50 (pIC50) is below 6.00 against JAK1, 8.00 to 9.00 against JAK3 and 7.00 to 8.00 against JAK2.

Turning to `COc1ccc(Nc2cc(NCc3cccc(F)c3F)c(C(N)=O)cn2)cc1` [Example 101, 4-(2,3-difluorobenzylamino)-6-(4-methoxyphenylamino)nicotinamide], the results for the negative logarithm of the IC50 (pIC50) at JAK1, at JAK3 and on JAK2 were below 6.00, 7.00 to 8.00 and below 6.00, respectively.

In the case of `NC(=O)c1cnc(Nc2ccc(C3CNC3)cc2)cc1NCc1cc(F)ccc1F` [Example 213, 6-(4-(azetidin-3-yl)phenylamino)-4-(2,5-difluorobenzylamino)nicotinamide], the values for the negative logarithm of the IC50 (pIC50) against JAK1, against JAK3 and at JAK2 were 6.00 to 7.00, 8.00 to 9.00 and 7.00 to 8.00, respectively.

Take `CN(C)C(=O)c1ccc(Nc2cc(NCc3cccc(S(C)(=O)=O)c3)c(C(N)=O)cn2)cc1` [Example 302, 6-(4-(dimethylcarbamoyl)phenylamino)-4-(3-(methylsulfonyl)benzylamino)nicotinamide]: the values for the pIC50 against JAK1, on JAK3 and against JAK2 were below 6.00, 7.00 to 8.00 and 6.00 to 7.00, respectively.

`CN(C)C(=O)N1CCC(Nc2cc(Nc3ccc(C4CCOCC4)cc3)ncc2C(N)=O)CC1` [Example 163, 4-(1-(dimethylcarbamoyl)piperidin-4-ylamino)-6-(4-(tetrahydro-2H-pyran-4-yl)phenylamino)nicotinamide]: the negative-log IC50 (pIC50) against JAK1 is below 6.00; on JAK3 it was 6.00 to 7.00; against JAK2, below 6.00.

Take `CC(=O)N1CCC(CNc2cc(Nc3ccc(C(=O)N4CCOCC4)cc3)ncc2C(N)=O)CC1` [Example 44, 4-((1-acetylpiperidin-4-yl)methylamino)-6-(4-(morpholine-4-carbonyl)phenylamino)nicotinamide]: the negative-log IC50 (pIC50) on JAK1, at JAK3 and at JAK2 was below 6.00 each time.

On to `CS(=O)(=O)Cc1ccc(Nc2cc(NCc3cccc(-c4ccncc4)c3)c(C(N)=O)cn2)cc1` [Example 418, 6-(4-(methylsulfonylmethyl)phenylamino)-4-(3-(pyridine-4-yl)benzylamino)nicotinamide], for which the negative-log IC50 (pIC50) against JAK1 is 6.00 to 7.00; at JAK3, 8.00 to 9.00; at JAK2, 6.00 to 7.00.

Regarding `NC(=O)c1cnc(Nc2ccc(N3CCC(F)(F)CC3)cc2)cc1NC1(c2ccccc2)CC1` [Example 131, 6-(4-(4,4-difluoropiperidin-1-yl)phenylamino)-4-(1-phenylcyclopropylamino)nicotinamide], the results for the negative logarithm of the IC50 (pIC50) against JAK1, against JAK3 and against JAK2 were below 6.00, 6.00 to 7.00 and below 6.00, respectively.

In the case of `CCC(=O)N1CC(c2ccc(Nc3cc(NCc4ccccc4)c(C(N)=O)cn3)cc2)C1` [Example 326, 4-(benzylamino)-6-(4-(1-propionylazetidin-3-yl)phenylamino)nicotinamide], the results for the negative logarithm of the IC50 (pIC50) on JAK1, at JAK3 and on JAK2 were 6.00 to 7.00, 8.00 to 9.00 and 6.00 to 7.00, respectively.

Regarding `COc1ccc(Nc2cc(NC[C@H]3CCCN(S(=O)(=O)C4CC4)C3)c(C(N)=O)cn2)cc1` [Example 292, (R)-4-((1-(cyclopropylsulfonyl)piperidin-3-yl)methylamino)-6-(4-methoxyphenylamino)nicotinamide], the pIC50 is below 6.00 at JAK1, 6.00 to 7.00 at JAK3 and below 6.00 at JAK2.

Take `COC(=O)N1CCC[C@H](CNc2cc(Nc3ccc(OC)cc3)ncc2C(N)=O)C1` [Example 56, (R)-methyl 3-((5-carbamoyl-2-(4-methoxyphenylamino)pyridin-4-ylamino)methyl)piperidine-1-carboxylate]: the pIC50 against JAK1 was below 6.00; on JAK3, 6.00 to 7.00; on JAK2 it was below 6.00.

In the case of `COc1ccc(Nc2cc(NC[C@H]3CCCNC3)c(C(N)=O)cn2)cc1` [Example 270, (S)-6-(4-methoxyphenylamino)-4-(piperidin-3-ylmethylamino)nicotinamide], the values for the pIC50 against JAK1, against JAK3 and against JAK2 were 6.00 to 7.00, 6.00 to 7.00 and below 6.00, respectively.

Take `NC(=O)c1cnc(Nc2ccc3ncccc3c2)cc1NCc1ccccc1` [Example 86, 4-(benzylamino)-6-(quinolin-6-ylamino)nicotinamide]: the pIC50 against JAK1 was below 6.00; at JAK3, 7.00 to 8.00; against JAK2, below 6.00.

As for `CN(C)C(=O)c1ccc(Nc2cc(NCc3cccc4cc[nH]c34)c(C(N)=O)cn2)cc1` [Example 288, 4-((1H-indol-7-yl)methylamino)-6-(4-(dimethylcarbamoyl)phenylamino)nicotinamide], the negative-log IC50 (pIC50) is below 6.00 at JAK1, 8.00 to 9.00 against JAK3 and 7.00 to 8.00 against JAK2.
